Results from PMC3480357, “Fragment-Hopping-Based Discovery of a Novel Chemical Series of Proto-Oncogene PIM-1 Kinase Inhibitors” (PLoS ONE, 2012).

Columns and labels:
[1] = set-up: method as in earlier work; settings: SuperGen press release; cited from earlier work
hERG = hERG (Homo sapiens, UniProt Q12809); test: hERG radioligand binding assay using [3H]-astemizole; settings: duplicate
MST1 = molecular target: T1, MST1 (Homo sapiens, UniProt Q13043); set-up: method as in PMID 21051136; settings: 10 µM; average of two data points; cited from earlier work
T1 sequence (Q13043 1-487): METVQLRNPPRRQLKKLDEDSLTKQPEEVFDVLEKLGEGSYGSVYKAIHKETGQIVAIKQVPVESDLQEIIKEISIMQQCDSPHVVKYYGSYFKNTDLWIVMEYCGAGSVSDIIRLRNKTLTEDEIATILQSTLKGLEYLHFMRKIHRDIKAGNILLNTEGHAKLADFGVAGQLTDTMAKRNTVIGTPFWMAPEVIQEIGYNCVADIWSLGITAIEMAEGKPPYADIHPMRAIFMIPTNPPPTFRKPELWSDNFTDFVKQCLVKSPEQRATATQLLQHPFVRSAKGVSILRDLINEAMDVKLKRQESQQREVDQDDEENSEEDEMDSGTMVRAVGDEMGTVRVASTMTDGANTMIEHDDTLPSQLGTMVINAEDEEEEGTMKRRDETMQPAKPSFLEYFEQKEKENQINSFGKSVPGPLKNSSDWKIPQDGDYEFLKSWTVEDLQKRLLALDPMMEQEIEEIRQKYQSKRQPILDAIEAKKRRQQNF

FLT3 = molecular target: T2, FLT3 (Homo sapiens, UniProt P36888); set-up: method as in PMID 21051136; settings: 10 µM; cited from earlier work
T2 construct: purchased Invitrogen PV3182
T2 sequence (P36888 564-993 limits assumed): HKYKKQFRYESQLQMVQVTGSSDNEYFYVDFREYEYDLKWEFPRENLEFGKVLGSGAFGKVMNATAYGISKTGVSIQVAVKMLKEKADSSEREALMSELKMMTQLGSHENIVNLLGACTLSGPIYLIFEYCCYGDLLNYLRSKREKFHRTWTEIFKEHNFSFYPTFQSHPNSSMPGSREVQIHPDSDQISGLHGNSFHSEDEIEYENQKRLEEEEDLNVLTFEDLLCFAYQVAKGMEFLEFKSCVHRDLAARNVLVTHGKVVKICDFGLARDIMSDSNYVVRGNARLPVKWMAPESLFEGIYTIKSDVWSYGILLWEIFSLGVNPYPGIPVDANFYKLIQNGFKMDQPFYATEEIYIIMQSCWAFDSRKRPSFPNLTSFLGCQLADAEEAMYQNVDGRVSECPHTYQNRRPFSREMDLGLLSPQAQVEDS

PIM-2 = PIM-2 (Homo sapiens, UniProt Q9P1W9); set-up: method as in PMID 21051136; settings: cited from earlier work
Chain of PIM-2 (Q9P1W9 whole entry): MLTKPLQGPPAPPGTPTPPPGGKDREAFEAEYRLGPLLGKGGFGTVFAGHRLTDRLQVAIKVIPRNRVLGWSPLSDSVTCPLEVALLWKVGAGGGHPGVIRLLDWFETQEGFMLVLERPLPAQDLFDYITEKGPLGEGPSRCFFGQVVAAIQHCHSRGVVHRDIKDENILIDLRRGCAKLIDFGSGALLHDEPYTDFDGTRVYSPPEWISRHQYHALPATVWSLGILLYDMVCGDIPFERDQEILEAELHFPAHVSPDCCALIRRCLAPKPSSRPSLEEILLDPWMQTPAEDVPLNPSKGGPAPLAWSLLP

JAK2 = JAK2 (Homo sapiens, UniProt O60674); set-up: method as in PMID 21051136; settings: 10 µM; average of two data points; cited from earlier work
Chain of JAK2 (O60674 whole entry, species assumed): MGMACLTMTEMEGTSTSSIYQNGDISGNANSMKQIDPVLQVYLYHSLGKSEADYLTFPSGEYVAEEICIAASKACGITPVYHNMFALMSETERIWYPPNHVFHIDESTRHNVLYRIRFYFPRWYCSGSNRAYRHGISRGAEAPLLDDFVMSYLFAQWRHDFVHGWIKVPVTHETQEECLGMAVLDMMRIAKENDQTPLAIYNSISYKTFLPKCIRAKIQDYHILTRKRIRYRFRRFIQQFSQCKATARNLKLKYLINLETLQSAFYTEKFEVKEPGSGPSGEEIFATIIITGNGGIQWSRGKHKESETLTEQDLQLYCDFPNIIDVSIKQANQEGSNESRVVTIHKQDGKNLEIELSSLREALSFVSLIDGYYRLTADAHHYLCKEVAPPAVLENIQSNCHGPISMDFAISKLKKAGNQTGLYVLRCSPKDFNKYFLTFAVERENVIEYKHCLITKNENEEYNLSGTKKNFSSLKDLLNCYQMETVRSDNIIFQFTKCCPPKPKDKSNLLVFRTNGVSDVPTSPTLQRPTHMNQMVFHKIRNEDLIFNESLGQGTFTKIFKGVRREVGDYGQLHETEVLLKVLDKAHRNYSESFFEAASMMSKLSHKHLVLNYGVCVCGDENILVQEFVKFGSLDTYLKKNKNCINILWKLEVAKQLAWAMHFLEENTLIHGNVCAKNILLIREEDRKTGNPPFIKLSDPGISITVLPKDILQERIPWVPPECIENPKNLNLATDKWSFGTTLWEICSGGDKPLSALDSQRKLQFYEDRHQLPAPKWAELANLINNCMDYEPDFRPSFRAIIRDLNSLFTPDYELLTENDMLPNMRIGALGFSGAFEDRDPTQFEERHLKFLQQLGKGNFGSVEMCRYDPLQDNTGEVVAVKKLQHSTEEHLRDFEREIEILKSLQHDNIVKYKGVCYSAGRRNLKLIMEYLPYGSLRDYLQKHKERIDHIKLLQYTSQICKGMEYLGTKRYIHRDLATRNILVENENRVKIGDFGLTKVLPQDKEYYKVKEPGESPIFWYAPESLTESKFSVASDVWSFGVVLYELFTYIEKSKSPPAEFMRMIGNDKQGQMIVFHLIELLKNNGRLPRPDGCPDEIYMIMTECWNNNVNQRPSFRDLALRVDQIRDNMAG

INS-R = INS-R (Homo sapiens, UniProt P06213); set-up: method as in PMID 21051136; settings: 10 µM; average of two data points; cited from earlier work
Chain of INS-R (P06213 980-1382 limits assumed, species assumed): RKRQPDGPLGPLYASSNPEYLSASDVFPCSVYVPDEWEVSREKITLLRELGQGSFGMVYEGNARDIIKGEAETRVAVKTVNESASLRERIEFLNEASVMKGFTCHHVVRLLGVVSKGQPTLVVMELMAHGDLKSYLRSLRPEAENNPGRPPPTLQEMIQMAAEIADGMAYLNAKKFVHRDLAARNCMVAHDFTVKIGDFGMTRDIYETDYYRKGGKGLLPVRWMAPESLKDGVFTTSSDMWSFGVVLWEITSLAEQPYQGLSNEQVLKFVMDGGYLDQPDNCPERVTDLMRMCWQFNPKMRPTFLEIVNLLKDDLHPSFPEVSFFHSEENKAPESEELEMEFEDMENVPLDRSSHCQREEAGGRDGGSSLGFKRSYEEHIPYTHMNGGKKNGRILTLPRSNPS

AKT1 = AKT1 (Homo sapiens, UniProt P31749); set-up: method as in PMID 21051136; settings: 10 µM; average of two data points; cited from earlier work
Chain of AKT1 (P31749 whole entry, species assumed): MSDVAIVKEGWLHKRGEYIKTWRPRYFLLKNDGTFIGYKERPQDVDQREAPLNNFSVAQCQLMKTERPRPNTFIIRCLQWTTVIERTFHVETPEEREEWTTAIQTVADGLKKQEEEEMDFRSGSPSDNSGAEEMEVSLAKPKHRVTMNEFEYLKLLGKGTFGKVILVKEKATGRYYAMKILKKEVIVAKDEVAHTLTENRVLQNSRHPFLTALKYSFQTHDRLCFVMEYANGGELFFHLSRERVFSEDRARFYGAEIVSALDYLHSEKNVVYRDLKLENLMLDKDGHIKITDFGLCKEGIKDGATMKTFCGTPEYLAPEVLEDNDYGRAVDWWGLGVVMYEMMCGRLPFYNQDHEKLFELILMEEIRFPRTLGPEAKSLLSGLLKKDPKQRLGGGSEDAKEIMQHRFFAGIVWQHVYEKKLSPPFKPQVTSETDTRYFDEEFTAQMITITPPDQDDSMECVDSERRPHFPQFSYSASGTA

FAK = FAK (Homo sapiens, UniProt Q05397); set-up: method as in PMID 21051136; settings: 10 µM; average of two data points; cited from earlier work
ARK5 = molecular target: T3, ARK5 (Homo sapiens, UniProt O60285); set-up: method as in PMID 21051136; settings: 10 µM; average of two data points; cited from earlier work
T3 sequence (O60285 1-661): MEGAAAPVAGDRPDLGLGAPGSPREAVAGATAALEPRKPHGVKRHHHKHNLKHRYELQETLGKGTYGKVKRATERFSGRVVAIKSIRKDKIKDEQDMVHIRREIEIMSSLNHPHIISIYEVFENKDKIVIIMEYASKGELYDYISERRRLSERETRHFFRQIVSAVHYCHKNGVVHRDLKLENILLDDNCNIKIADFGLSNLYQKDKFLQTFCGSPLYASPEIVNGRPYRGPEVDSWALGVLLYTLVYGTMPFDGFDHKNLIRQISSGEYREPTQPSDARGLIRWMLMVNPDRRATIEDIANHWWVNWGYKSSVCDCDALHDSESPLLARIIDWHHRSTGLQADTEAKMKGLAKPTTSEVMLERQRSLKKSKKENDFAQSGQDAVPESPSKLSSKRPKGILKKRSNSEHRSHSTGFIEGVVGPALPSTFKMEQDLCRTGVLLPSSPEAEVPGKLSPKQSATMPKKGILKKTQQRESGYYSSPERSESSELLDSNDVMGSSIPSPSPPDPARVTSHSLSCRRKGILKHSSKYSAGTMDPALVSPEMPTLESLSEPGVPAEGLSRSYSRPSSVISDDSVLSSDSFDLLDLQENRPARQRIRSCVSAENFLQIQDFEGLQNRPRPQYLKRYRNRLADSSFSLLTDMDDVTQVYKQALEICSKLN

FGF-R1 = FGF-R1 (Homo sapiens, UniProt P11362); set-up: method as in PMID 21051136; settings: 10 µM; average of two data points; cited from earlier work
Chain of FGF-R1 (P11362 22-822, species assumed): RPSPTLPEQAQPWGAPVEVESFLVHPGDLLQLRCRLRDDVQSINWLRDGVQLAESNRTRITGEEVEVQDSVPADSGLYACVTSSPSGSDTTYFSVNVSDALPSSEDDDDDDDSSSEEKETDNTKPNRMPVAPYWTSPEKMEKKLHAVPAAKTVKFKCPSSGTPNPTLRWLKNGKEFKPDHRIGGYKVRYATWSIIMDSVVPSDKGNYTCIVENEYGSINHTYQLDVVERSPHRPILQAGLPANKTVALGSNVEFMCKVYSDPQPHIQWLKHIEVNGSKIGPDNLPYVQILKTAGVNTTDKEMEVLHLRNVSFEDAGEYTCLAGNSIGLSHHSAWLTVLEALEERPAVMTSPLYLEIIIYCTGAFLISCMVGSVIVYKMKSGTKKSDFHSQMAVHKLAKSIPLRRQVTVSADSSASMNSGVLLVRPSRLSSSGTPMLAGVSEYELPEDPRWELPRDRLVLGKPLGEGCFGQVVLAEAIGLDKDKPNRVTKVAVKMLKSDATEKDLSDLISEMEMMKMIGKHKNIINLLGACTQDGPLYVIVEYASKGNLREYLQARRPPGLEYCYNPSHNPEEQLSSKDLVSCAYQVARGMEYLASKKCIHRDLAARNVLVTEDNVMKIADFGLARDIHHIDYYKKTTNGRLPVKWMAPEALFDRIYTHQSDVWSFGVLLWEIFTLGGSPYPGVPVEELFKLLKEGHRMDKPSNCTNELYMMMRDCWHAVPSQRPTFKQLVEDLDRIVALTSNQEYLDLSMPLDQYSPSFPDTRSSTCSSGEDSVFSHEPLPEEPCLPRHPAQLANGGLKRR

JNK1 = JNK1 (Homo sapiens, UniProt P45983); set-up: method as in PMID 21051136; settings: 10 µM; average of two data points; cited from earlier work
Chain of JNK1 (P45983 whole entry, species assumed): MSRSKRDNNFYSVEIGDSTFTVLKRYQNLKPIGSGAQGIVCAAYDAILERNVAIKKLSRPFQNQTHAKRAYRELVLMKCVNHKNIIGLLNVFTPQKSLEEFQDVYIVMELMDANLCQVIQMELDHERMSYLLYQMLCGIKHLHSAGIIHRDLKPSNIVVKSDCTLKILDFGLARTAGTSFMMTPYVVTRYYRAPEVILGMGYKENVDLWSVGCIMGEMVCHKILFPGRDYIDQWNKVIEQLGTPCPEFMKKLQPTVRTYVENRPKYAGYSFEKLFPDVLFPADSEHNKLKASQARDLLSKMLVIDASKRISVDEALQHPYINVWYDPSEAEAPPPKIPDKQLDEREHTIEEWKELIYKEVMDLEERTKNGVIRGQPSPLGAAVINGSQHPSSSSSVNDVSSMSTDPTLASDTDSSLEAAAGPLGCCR

PIM-3 = PIM-3 (Homo sapiens, UniProt Q86V86); set-up: method as in PMID 21051136; settings: cited from earlier work
SGK1 = molecular target: T4, SGK1 (Homo sapiens, UniProt O00141); set-up: method as in PMID 21051136; settings: 10 µM; average of two data points; cited from earlier work
T4 sequence (O00141 1-431): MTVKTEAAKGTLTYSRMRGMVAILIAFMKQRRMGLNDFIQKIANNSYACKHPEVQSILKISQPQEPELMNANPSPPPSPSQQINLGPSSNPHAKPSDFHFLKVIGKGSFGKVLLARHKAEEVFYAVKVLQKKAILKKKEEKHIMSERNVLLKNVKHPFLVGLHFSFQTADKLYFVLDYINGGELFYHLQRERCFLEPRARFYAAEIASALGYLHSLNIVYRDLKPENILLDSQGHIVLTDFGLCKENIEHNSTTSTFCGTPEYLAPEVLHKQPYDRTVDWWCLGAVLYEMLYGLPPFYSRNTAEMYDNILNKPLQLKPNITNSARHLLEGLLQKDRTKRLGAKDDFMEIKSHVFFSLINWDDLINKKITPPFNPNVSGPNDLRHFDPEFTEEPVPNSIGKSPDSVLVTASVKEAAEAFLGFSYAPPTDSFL

Chain of hERG (Q12809 whole entry): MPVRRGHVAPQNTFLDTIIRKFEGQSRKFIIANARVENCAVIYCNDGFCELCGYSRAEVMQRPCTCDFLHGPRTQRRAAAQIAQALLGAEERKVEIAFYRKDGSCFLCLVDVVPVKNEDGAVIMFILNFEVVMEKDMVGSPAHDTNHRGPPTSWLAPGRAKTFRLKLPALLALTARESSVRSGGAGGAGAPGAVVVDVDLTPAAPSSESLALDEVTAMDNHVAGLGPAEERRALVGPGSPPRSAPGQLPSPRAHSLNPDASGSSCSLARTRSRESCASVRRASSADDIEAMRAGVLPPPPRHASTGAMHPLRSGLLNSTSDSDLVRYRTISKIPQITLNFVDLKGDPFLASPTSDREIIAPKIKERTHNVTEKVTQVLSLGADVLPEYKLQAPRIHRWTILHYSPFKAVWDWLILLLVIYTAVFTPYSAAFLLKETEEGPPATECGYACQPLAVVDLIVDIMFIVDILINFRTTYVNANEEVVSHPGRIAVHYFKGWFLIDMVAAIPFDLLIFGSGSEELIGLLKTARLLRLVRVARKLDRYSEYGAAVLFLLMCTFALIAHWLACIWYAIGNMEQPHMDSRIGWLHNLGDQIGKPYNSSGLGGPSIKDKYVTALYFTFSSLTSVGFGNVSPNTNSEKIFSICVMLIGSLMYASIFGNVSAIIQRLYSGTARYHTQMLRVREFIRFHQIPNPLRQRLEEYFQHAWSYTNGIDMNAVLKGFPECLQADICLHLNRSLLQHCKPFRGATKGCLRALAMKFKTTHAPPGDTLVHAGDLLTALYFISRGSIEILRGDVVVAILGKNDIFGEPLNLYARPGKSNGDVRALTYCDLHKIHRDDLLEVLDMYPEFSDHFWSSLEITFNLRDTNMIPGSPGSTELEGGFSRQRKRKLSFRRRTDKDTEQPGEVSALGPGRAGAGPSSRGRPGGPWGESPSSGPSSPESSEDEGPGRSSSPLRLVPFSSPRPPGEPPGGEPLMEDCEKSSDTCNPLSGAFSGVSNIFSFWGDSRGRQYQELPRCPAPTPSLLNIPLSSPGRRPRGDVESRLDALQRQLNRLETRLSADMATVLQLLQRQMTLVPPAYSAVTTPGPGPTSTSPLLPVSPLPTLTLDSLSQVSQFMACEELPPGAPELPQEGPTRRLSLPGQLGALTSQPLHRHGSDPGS

SMILES: CN1CCC(CNc2ccc3ncc(-c4cccc(OC(F)(F)F)c4)n3n2)CC1 [Compound 3, reference compound]
- cardiac and pharmacokinetic data evaluation in Phase I trial [1]: failed to demonstrate a safe therapeutic window

SMILES: CN1CCC(CNc2ccc3nnn(-c4cccc(OC(F)(F)F)c4)c3n2)CC1 [Compound 8, (1-Methyl-piperidin-4-ylmethyl)-[3-(3-trifluoromethoxy-phenyl)-3H-[1], [2], [3]triazolo[4,5-b]pyridin-5-yl]-amine]
- IC50 (hERG): 5.4 µM

SMILES: Oc1ccc(-c2cnc3ccc(NCc4ccc(F)cc4)nn23)cc1 [Compound 1]
- MST1 percentage of inhibition (MST1): 82%
- FLT3 percentage of inhibition (FLT3): more than 90%
- IC50 (PIM-2): 420 nM
- JAK2 percentage of inhibition (JAK2): 48%
- INS-R percentage of inhibition (INS-R): 67%
- AKT1 percentage of inhibition (AKT1): 0%
- FAK percentage of inhibition (FAK): 48%
- ARK5 percentage of inhibition (ARK5): 71%
- FGF-R1 percentage of inhibition (FGF-R1): 84%
- JNK1 percentage of inhibition (JNK1): 62%
- IC50 (PIM-3): 79 nM
- SGK1 percentage of inhibition (SGK1): 73%
